These results are taken from EP4786487A1, “PEPTIDE” (Peptidream Inc, priority 2023, dated 2025).

The IC50 is the concentration that inhibits the measured activity by half.

Format in all cases: cell-based
Assay [1] addresses T1, GDF-11 (Homo sapiens, UniProt O95390).
T1 construct: purchased R&D systems 1958-GD-G8/CF
T1 sequence (O95390 299-407): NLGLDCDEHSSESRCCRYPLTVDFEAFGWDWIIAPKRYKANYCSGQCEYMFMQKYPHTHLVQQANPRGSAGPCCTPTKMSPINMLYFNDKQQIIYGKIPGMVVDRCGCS
Briefly: Reporter gene assay for myostatin signaling in HepG2 cell line, Evaluation Procedure (1), GDF-11 inhibition. To be noted: read-out: IC50 (Luciferase) GDF-11 HepG2. In outline: (§1)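 HepG2 cells transfected with pGL3(CAGA)12-luciferase reporter, serum-starved in 0.1% BSA medium, then stimulated with myostatin or GDF-11 plus 4-fold peptide dilutions (0.006–100 nmol/L for myostatin, 0.12–2000 nmol/L for GDF-11) for 20–24 h at 37 °C. Luminescence read with One-Glo; IC50 calculated.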
On the technique in general: Reporter assays use an easily measured gene product as a stand-in for the process of interest.

Assay [2] concerns Myostatin. The experiment in a line: Reporter gene assay for myostatin signaling in HepG2 cell line, Evaluation Procedure (1), myostatin inhibition. To be noted: GDF-11 IC50 versus Myostatin IC50. In outline:
as §1

The target of assay [3] is T2, Myostatin (Homo sapiens, UniProt O14793).
T2 construct: active myostatin (also called mature myostatin) is a homodimer consisting of two C-terminal growth factor domains; purchased R&D systems 788-G8/CF
T2 sequence (O14793 267-375): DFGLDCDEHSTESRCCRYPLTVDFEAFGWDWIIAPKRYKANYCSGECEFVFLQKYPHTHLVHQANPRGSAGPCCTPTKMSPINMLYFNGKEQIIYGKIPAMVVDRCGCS
Described as above. To be noted: read-out: IC50 (Luciferase) Myostatin HepG2. The essentials: as §1

Where two headings read alike, the source gives them in different places. Starred links: 1 amine or outer side, 2 acyl side, 3 side chain; linkers in the order of their positions; H or OH if unused. Positions of bridges follow the written chain, without caps; N, C: chain ends. Non-standard residues stand in square brackets, D forms with d. Residues, ends and D or L forms follow the SMILES beside them. *: point of attachment. Phe(3-OCH2COOH) = N[C@@H](Cc1cccc(OCC(=O)O)c1)C(=O)O; Piperidine(4-CH2CH2CONH2) = NC(=O)CCC1CCN(*)CC1; Phe(4-COOH) = N[C@@H](Cc1ccc(C(=O)O)cc1)C(=O)O; Trp(6-aza) = N[C@@H](Cc1c[nH]c2cnccc12)C(=O)O; Piperazinyl(4-CH2COOH) = O=C(O)CN1CCN(*)CC1; Piperidinyl(4-CH2COOH) = O=C(O)CC1CCN(*)CC1; Gly(decyl) = CCCCCCCCCC[C@H](N)C(=O)O; X1 = CCCCCCC[C@H](N[*:1])C(=O)[*:2]; NMeCha = CN[C@@H](CC1CCCCC1)C(=O)O; NMeF = CN[C@@H](Cc1ccccc1)C(=O)O; NMeE = CN[C@@H](CCC(=O)O)C(=O)O; NMeA = CN[C@@H](C)C(=O)O; X9 = NC(=O)CC1CCN(*)CC1; NEtG = CCNCC(=O)O; Sar = CNCC(=O)O

As for `CCCCCCC[C@@H]1NC(=O)[C@H](Cc2ccccc2)N(C)C(=O)[C@H](CCCNC(=N)N)NC(=O)[C@H](Cc2ccc(C(=O)O)cc2)NC(=O)[C@H](Cc2cccc(OCC(=O)O)c2)NC(=O)[C@H]2CCCN2C(=O)[C@H]([C@@H](C)CC)NC(=O)[C@H](Cc2ccccc2)N(C)C(=O)[C@H](Cc2ccc(O)cc2)NC(=O)[C@H](Cc2c[nH]c3ccccc23)NC(=O)[C@@H](CCC(=O)O)NC(=O)[C@H](C)NC(=O)CSC[C@H](C(=O)N2CCN(CC(=O)O)CC2)NC(=O)[C@H](Cc2ccccc2)N(C)C(=O)[C@H](C)N(C)C1=O` [Myostatin_99_v254] ({CH2CO}-A[dE]WY[NMeF]I[dP][Phe(3-OCH2COOH)][Phe(4-COOH)]R[NMeF][X1][NMeA][NMeF][dC]-{Piperazinyl(4-CH2COOH)}; thioether N-15), the half-maximal inhibitory concentration (IC50) in assay [1] (Method A: GDF-11 10 ng/mL) was found to be 3310 nM; in assay [3] (Method A: Myostatin 10 ng/mL), 3.6 nM. This compound showed a Selectivity in assay [2] (Method A) of 921.

As to `CCCCCCC[C@@H]1NC(=O)[C@H](Cc2ccccc2)N(C)C(=O)[C@H](CCCNC(=N)N)NC(=O)[C@H](Cc2ccc(C(=O)O)cc2)NC(=O)[C@H](Cc2cccc(OCC(=O)O)c2)NC(=O)CN(C)C(=O)[C@H]([C@@H](C)CC)NC(=O)[C@H](CC2CCCCC2)N(C)C(=O)[C@H](Cc2ccc(O)cc2)NC(=O)[C@H](Cc2c[nH]c3ccccc23)NC(=O)[C@@H](CCC(=O)O)NC(=O)[C@H](C)NC(=O)CSC[C@H](C(=O)N2CCN(CC(=O)O)CC2)NC(=O)[C@H](Cc2ccccc2)N(C)C(=O)[C@H](C)N(C)C1=O` [Myostatin_99_v255] ({CH2CO}-A[dE]WY[NMeCha]I[Sar][Phe(3-OCH2COOH)][Phe(4-COOH)]R[NMeF][X1][NMeA][NMeF][dC]-{Piperazinyl(4-CH2COOH)}; thioether N-15), the IC50 in assay [1] (Method A: GDF-11 10 ng/mL) came to 191 nM; in assay [3] (Method A: Myostatin 10 ng/mL), 1.6 nM. In assay [2] (Method A), this compound yielded a Selectivity of 119.

Take `CCCCCCCCCC[C@@H]1NC(=O)[C@H](Cc2ccccc2)N(C)C(=O)[C@H](CCCNC(=N)N)NC(=O)[C@H](Cc2ccc(C(=O)O)cc2)NC(=O)[C@H](Cc2cccc(OCC(=O)O)c2)NC(=O)[C@H]2CCCN2C(=O)[C@H]([C@@H](C)CC)NC(=O)[C@H](Cc2ccccc2)N(C)C(=O)[C@H](Cc2ccc(O)cc2)NC(=O)[C@H](Cc2c[nH]c3ccccc23)NC(=O)[C@H](C)NC(=O)[C@H](C)NC(=O)CSC[C@H](C(=O)N2CCN(CC(=O)O)CC2)NC(=O)[C@H](Cc2ccccc2)N(C)C(=O)[C@H](CCC(=O)O)N(C)C1=O` [Myostatin_99_v309] ({CH2CO}-AAWY[NMeF]I[dP][Phe(3-OCH2COOH)][Phe(4-COOH)]R[NMeF][Gly(decyl)][NMeE][NMeF][dC]-{Piperazinyl(4-CH2COOH)}; thioether N-15): the IC50 in assay [1] (Method B: GDF-11 1 ng/mL) came to 25 nM; in assay [3] (Method B: Myostatin 1 ng/mL), 0.09 nM. This compound returned a Selectivity in assay [2] (Method B) of 287.

For `CCCCCCC[C@@H]1NC(=O)[C@H](Cc2ccccc2)N(C)C(=O)[C@H](CCCNC(=N)N)NC(=O)[C@H](Cc2ccc(C(=O)O)cc2)NC(=O)[C@H](Cc2cccc(OCC(=O)O)c2)NC(=O)CN(C)C(=O)[C@H]([C@@H](C)CC)NC(=O)[C@H](Cc2ccccc2)N(C)C(=O)[C@H](Cc2ccc(O)cc2)NC(=O)[C@H](Cc2c[nH]c3ccccc23)NC(=O)[C@H](C)NC(=O)[C@H](C)NC(=O)CSC[C@H](C(=O)N2CCC(CC(N)=O)CC2)NC(=O)[C@H](Cc2ccccc2)N(C)C(=O)[C@H](CCC(=O)O)N(C)C1=O` [Myostatin_99_v315] ({CH2CO}-AAWY[NMeF]I[Sar][Phe(3-OCH2COOH)][Phe(4-COOH)]R[NMeF][X1][NMeE][NMeF][dC]-X9; thioether N-15), the IC50 in assay [1] (Method B: GDF-11 1 ng/mL) amounted to 56.8 nM; in assay [3] (Method B: Myostatin 1 ng/mL), 0.1 nM. Further, the Selectivity in assay [2] (Method B) was found to be 541.6.

For the compound `CCCCCCC[C@@H]1NC(=O)[C@H](Cc2ccccc2)N(C)C(=O)[C@H](CCCNC(=N)N)NC(=O)[C@H](Cc2ccc(C(=O)O)cc2)NC(=O)[C@H](Cc2cccc(OCC(=O)O)c2)NC(=O)CN(C)C(=O)[C@H]([C@@H](C)CC)NC(=O)[C@H](Cc2ccccc2)N(C)C(=O)[C@H](Cc2ccc(O)cc2)NC(=O)[C@H](Cc2c[nH]c3ccccc23)NC(=O)[C@H](C)NC(=O)[C@H](C)NC(=O)CSC[C@H](C(=O)N2CCC(CCC(N)=O)CC2)NC(=O)[C@H](Cc2ccccc2)N(C)C(=O)[C@H](CCC(=O)O)N(C)C1=O` [Myostatin_99_v316] ({CH2CO}-AAWY[NMeF]I[Sar][Phe(3-OCH2COOH)][Phe(4-COOH)]R[NMeF][X1][NMeE][NMeF][dC]-{Piperidine(4-CH2CH2CONH2)}; thioether N-15), the IC50 in assay [1] (Method B: GDF-11 1 ng/mL) stood at 89.7 nM; in assay [3] (Method B: Myostatin 1 ng/mL), 0.37 nM. Besides, the Selectivity in assay [2] (Method B) is 239.8.

For the compound `CCCCCCCCCC[C@@H]1NC(=O)[C@H](Cc2ccccc2)N(C)C(=O)[C@H](CCCNC(=N)N)NC(=O)[C@H](Cc2ccc(C(=O)O)cc2)NC(=O)[C@H](Cc2cccc(OCC(=O)O)c2)NC(=O)[C@H]2CCCN2C(=O)[C@H]([C@@H](C)CC)NC(=O)[C@H](Cc2ccccc2)N(C)C(=O)[C@H](Cc2ccc(O)cc2)NC(=O)[C@H](Cc2c[nH]c3ccccc23)NC(=O)[C@H](C)NC(=O)[C@H](C)NC(=O)CSC[C@H](C(=O)N2CCC(CC(=O)O)CC2)NC(=O)[C@H](Cc2ccccc2)N(C)C(=O)[C@H](CCC(=O)O)N(C)C1=O` [Myostatin_99_v335] ({CH2CO}-AAWY[NMeF]I[dP][Phe(3-OCH2COOH)][Phe(4-COOH)]R[NMeF][Gly(decyl)][NMeE][NMeF][dC]-{Piperidinyl(4-CH2COOH)}; thioether N-15), the IC50 came out at 46.6 nM in assay [1] (Method B: GDF-11 1 ng/mL) and 0.32 nM in assay [3] (Method B: Myostatin 1 ng/mL). The compound also registered a Selectivity in assay [2] (Method B) of 145.0.

As for `CCCCCCCCCC[C@@H]1NC(=O)[C@H](Cc2ccccc2)N(C)C(=O)[C@H](CCCNC(=N)N)NC(=O)[C@H](Cc2ccc(C(=O)O)cc2)NC(=O)[C@H](Cc2cccc(OCC(=O)O)c2)NC(=O)[C@H]2CCCN2C(=O)[C@H]([C@@H](C)CC)NC(=O)[C@H](Cc2ccccc2)N(C)C(=O)[C@H](Cc2ccc(O)cc2)NC(=O)[C@H](Cc2c[nH]c3cnccc23)NC(=O)[C@H](C)NC(=O)[C@H](C)NC(=O)CSC[C@H](C(=O)N2CCC(CC(=O)O)CC2)NC(=O)[C@H](Cc2ccccc2)N(C)C(=O)[C@H](CCC(=O)O)N(C)C1=O` [Myostatin_99_v338] ({CH2CO}-AA[Trp(6-aza)]Y[NMeF]I[dP][Phe(3-OCH2COOH)][Phe(4-COOH)]R[NMeF][Gly(decyl)][NMeE][NMeF][dC]-{Piperidinyl(4-CH2COOH)}; thioether N-15), the IC50 in assay [1] (Method B: GDF-11 1 ng/mL) came out at 114 nM; in assay [3] (Method B: Myostatin 1 ng/mL), 0.38 nM. In assay [2] (Method B), this compound registered a Selectivity of 299.8.

For `CCCCCCCCCC[C@@H]1NC(=O)[C@H](Cc2ccccc2)N(C)C(=O)[C@H](CCCNC(=N)N)NC(=O)[C@H](Cc2ccc(C(=O)O)cc2)NC(=O)[C@H](Cc2cccc(OCC(=O)O)c2)NC(=O)CN(CC)C(=O)[C@H]([C@@H](C)CC)NC(=O)[C@H](Cc2ccccc2)N(C)C(=O)[C@H](Cc2ccc(O)cc2)NC(=O)[C@H](Cc2c[nH]c3cnccc23)NC(=O)[C@H](C)NC(=O)[C@H](C)NC(=O)CSC[C@H](C(=O)N2CCC(CC(=O)O)CC2)NC(=O)[C@H](Cc2ccccc2)N(C)C(=O)[C@H](CCC(=O)O)N(C)C1=O` [Myostatin_99_v339] ({CH2CO}-AA[Trp(6-aza)]Y[NMeF]I[NEtG][Phe(3-OCH2COOH)][Phe(4-COOH)]R[NMeF][Gly(decyl)][NMeE][NMeF][dC]-{Piperidinyl(4-CH2COOH)}; thioether N-15), the figures for the IC50 in assay [1] (Method B: GDF-11 1 ng/mL) and in assay [3] (Method B: Myostatin 1 ng/mL) were 128 nM and 0.89 nM, respectively. This compound also had a Selectivity in assay [2] (Method B) of 144.7.
